Calls of active or inactive are those of the source. The rule behind the calls is not given here.
Assays:
[1] = molecular target: T1, Sodium-dependent noradrenaline transporter (Homo sapiens, UniProt P23975); assay: Displacement of [125I]RTI55 from human recombinant NET expressed in HEK293 cells; format: cell-based
[2] = molecular target: T2, Sodium-dependent serotonin transporter (Homo sapiens, UniProt P31645); assay: Inhibition of [3H]5HT from human recombinant SERT expressed in HEK293 cells; format: cell-based
[3] = molecular target: T2, Sodium-dependent serotonin transporter; assay: biochemical; format: cell-based, HEK293
[4] = molecular target: T3, Sodium-dependent dopamine transporter (Homo sapiens, UniProt Q01959); assay: Displacement of [125I]RTI55 from human recombinant DAT expressed in HEK293 cells; format: cell-based
[5] = molecular target: T1, Sodium-dependent noradrenaline transporter; assay: Inhibition of [3H]NE from human recombinant NET expressed in HEK293 cells; format: cell-based
[6] = molecular target: T4, 3',5'-cyclic-AMP phosphodiesterase 4D (Homo sapiens, UniProt Q08499); assay: Inhibition of PDE4D2 by rapid fluorescence based assay
[7] = molecular target: T3, Sodium-dependent dopamine transporter; assay: Inhibition of [3H]DA from human recombinant DAT expressed in HEK293 cells; format: cell-based
[8] = molecular target: T4, 3',5'-cyclic-AMP phosphodiesterase 4D; assay: Inhibition of PDE4D2 at 100 uM by rapid fluorescence based assay

T1 sequence (P23975 whole entry): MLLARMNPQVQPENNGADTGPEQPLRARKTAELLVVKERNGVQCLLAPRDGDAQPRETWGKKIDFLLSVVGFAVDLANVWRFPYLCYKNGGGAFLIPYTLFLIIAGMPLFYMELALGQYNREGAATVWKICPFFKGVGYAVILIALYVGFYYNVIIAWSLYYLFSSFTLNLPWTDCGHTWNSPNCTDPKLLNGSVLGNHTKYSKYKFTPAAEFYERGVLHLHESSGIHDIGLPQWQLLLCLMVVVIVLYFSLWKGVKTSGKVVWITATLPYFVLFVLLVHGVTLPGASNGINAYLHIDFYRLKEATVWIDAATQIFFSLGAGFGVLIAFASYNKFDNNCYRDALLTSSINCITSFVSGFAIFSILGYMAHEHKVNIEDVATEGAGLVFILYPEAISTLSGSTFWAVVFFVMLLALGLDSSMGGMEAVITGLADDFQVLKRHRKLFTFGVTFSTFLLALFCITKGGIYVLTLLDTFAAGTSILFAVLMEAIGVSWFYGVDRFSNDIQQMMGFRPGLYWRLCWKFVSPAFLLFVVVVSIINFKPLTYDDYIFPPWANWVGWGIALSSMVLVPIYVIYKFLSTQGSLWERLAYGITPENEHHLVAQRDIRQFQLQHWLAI
T4 sequence (Q08499 whole entry): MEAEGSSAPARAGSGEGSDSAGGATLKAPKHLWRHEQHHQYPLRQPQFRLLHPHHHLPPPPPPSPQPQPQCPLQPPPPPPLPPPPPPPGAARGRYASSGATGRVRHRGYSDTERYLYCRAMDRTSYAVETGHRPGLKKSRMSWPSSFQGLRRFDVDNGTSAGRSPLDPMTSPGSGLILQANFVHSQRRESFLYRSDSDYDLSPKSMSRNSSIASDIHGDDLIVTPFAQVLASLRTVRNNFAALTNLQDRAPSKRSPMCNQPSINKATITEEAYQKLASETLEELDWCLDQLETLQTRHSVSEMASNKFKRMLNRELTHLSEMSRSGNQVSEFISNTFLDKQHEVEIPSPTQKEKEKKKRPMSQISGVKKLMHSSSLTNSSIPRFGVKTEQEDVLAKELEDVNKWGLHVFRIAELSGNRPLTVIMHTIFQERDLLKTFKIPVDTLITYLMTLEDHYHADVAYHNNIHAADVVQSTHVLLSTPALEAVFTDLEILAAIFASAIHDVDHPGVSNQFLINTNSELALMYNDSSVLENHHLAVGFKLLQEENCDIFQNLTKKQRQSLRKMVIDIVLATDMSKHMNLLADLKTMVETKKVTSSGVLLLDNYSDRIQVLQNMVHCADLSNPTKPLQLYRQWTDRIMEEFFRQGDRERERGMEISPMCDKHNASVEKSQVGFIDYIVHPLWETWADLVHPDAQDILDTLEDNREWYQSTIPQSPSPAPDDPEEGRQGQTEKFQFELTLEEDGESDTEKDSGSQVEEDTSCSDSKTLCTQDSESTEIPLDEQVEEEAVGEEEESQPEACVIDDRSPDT
T3 sequence (Q01959 whole entry): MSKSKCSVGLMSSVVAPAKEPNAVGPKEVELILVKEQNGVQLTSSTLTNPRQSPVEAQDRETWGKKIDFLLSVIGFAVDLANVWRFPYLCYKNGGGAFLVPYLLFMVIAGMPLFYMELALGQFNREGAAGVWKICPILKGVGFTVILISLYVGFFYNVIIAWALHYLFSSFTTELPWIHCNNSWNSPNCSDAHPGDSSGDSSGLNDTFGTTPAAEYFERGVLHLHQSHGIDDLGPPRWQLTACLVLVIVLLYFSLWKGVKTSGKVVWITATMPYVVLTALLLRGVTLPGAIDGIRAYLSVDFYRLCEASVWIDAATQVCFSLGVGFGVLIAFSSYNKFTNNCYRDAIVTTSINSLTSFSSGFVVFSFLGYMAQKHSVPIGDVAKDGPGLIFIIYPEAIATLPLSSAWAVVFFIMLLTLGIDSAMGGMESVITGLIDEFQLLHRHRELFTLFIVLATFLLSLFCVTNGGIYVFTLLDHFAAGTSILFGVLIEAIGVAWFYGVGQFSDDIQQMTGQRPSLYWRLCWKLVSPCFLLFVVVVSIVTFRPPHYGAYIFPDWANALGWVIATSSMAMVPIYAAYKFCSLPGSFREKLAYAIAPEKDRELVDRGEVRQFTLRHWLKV
T2 sequence (P31645 whole entry): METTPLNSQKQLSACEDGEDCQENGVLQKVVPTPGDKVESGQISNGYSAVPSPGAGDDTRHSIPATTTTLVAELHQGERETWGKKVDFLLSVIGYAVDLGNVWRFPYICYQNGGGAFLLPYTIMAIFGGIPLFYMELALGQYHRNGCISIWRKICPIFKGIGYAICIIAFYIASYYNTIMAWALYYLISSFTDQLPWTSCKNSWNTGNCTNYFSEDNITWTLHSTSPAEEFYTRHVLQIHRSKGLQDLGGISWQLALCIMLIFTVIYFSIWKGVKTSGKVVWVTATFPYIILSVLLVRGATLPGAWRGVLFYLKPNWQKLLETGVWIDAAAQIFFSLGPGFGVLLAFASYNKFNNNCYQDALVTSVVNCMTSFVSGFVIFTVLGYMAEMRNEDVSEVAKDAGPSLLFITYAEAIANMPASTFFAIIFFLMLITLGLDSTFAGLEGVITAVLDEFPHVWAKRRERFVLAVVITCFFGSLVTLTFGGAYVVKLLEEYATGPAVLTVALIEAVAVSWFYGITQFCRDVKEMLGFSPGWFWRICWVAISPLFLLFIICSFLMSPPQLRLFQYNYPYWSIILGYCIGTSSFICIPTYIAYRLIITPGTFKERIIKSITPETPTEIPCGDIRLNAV

Ki [1]	IC50 [2]	Ki [3]	Ki [4]	IC50 [5]	IC50 [6]	IC50 [7]	Activity [8]	Structure (SMILES)
6.57 µM	0.173 µM	0.065 µM	4.49 µM	6.81 µM	0.106 µM	> 7 µM	–	COc1ccc(C2=NN(CCCCCNCC[C@@H](Oc3ccc(C(F)(F)F)cc3)c3ccccc3)C(=O)C3CC=CCC23)cc1OC (stereo not given in full)
6.19 µM	–	–	4.54 µM	2.81 µM	≥ 100 µM	6.49 µM	–	NCC[C@H](Oc1ccc(C(F)(F)F)cc1)c1ccccc1 [SEPROXETINE]
4.6 µM	0.042 µM	0.3 µM	2.72 µM	6.55 µM	0.253 µM	5.98 µM	–	COc1ccc(C2=NN(CCCCCNCC[C@H](Oc3ccc(C(F)(F)F)cc3)c3ccccc3)C(=O)C3CC=CCC23)cc1OC (stereo not given in full)
7.49 µM	–	–	3.66 µM	2 µM	–	7.13 µM	inactive	NCC[C@@H](Oc1ccc(C(F)(F)F)cc1)c1ccccc1
–	> 100 µM	> 100 µM	> 100 µM	–	–	> 100 µM	–	COc1ccc(C2=NN(CCCCCBr)C(=O)C3CC=CCC23)cc1OC (stereo not given)

Structure (SMILES)	Ki [1]	IC50 [2]	Ki [3]	Ki [4]	IC50 [5]	IC50 [6]	IC50 [7]	Activity [8]
COc1ccc(C2=NNC(=O)C3CC=CCC23)cc1OC (stereo not given)	> 100 µM	> 100 µM	> 100 µM	> 100 µM	> 100 µM	0.213 µM	> 100 µM	–

Source: ChEMBL document CHEMBL1139269, “Stereoselective inhibition of serotonin re-uptake and phosphodiesterase by dual inhibitors as potential agents for depression” (Bioorg Med Chem, 2009)
